{"source": "patent US7595310B2", "about": "“Glucuronate salt of a piperazine compound” (Solvay Pharmaceuticals, B.V., priority 2005, dated 2009)", "key": {"[1]": {"experiment": "Comparative equilibrium solubility of salts of compound 1", "settings": "pH printed beside the equilibrium solubility"}, "[2]": {"settings": "in vivo; cited from earlier work"}, "[3]": {"target": "D2 receptors (Homo sapiens, UniProt P14416)", "sequence (P14416 whole entry)": "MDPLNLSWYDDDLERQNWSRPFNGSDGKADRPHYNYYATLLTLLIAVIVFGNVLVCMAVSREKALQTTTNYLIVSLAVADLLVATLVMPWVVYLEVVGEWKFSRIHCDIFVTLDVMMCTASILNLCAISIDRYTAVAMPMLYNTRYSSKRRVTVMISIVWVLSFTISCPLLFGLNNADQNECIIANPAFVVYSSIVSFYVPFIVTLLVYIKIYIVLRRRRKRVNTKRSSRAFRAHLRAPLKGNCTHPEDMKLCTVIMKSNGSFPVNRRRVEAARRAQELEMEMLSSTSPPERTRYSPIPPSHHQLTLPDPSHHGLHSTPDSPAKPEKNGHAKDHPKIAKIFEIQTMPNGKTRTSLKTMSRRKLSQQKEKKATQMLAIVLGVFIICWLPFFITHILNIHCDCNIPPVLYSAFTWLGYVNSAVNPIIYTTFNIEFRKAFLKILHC", "settings": "in therapeutic models; cited from earlier work"}, "[4]": {"test_system": "5HT reuptake", "settings": "in therapeutic models; cited from earlier work"}, "[5]": {"settings": "rodents; cited from earlier work"}}}
{"compound": "CC1Oc2c(cccc2N2CCN(CCCc3c[nH]c4ccc(F)cc34)CC2)NC1=O", "note": "(stereo not drawn) [compound 1, 8-{4-[3-(5-fluoro-1H-indol-3-yl)-propyl]-piperazin-1-yl}-2-methyl-4H-benzo[1,4]oxazin-3-one]", "values": [{"measurement": "pH", "setting": "[1]; listed as freebase (1)", "result": 4.72}, {"measurement": "activity in therapeutic models sensitive to clinically relevant antipsychotics, antidepressants, anxiolytics, Parkinson's disease", "setting": "[2]", "result": "active"}, {"measurement": "activity at D2 receptors", "setting": "[3]", "result": "antagonistic activity"}, {"measurement": "activity against 5HT reuptake", "setting": "[4]", "result": "inhibitory activity"}, {"measurement": "propensity to induce catalepsy", "setting": "[5]", "result": "low propensity"}]}
{"compound": "CC1Oc2c(cccc2N2CCN(CCCc3c[nH]c4ccc(F)cc34)CC2)NC1=O", "note": "(stereo not drawn) [compound 2]", "values": [{"measurement": "pH", "setting": "[1]; listed as glucuronate (2)", "result": 4.25}]}
